Measurements taken from US4521335A, “Aglycone and pseudo-aglycones of the AAD 216 antibiotics” (SmithKline Beckman Corporation, priority 1984, dated 1985).
In brackets after ≈: the same amount, converted by molar mass.

Tests used:
[1] = tested on: Staph. aureus SK & F 674; assay: MIC, standard microtiter assay; type: cell-based; details: Staphylococcus aureus
[2] = tested on: Salmonella gallinarum BC-595; assay: microbe, parasite or virus in culture; type: cell-based; details: Salmonella enterica
[3] = tested on: Enterobacter cloacae HH31254; assay: MIC, standard microtiter assay; type: cell-based
[4] = tested on: Staph. aureus SK & F 209P-mutant; assay: microbe, parasite or virus in culture; type: cell-based; details: Staphylococcus aureus
[5] = tested on: inoculum (rumen cannula filtrate); assay: rumen in vitro model, growth promotant activity; details: experiment III; for GLU (% Control): glucose; for LYS (% Control): lysine; for Propionate % (% Control): propionate as percentage of total VFA; for VFA (% Control): total volatile fatty acids
[6] = tested on: C. perfringens ATCC 19408; assay: microbe, parasite or virus in culture; type: cell-based; details: Clostridium perfringens, ATCC19408
[7] = tested on: Staph. aureus SK & F 2678; assay: MIC, standard microtiter assay; type: cell-based; details: Staphylococcus aureus
[8] = tested on: Bacteroides Fragilis ATCC; assay: MIC, standard microtiter assay; type: cell-based
[9] = tested on: Staph. aureus SK & F 2682; assay: MIC, standard microtiter assay; type: cell-based; details: Staphylococcus aureus
[10] = tested on: Staph. aureus SK & F 2590; assay: MIC, standard microtiter assay; type: cell-based; details: Staphylococcus aureus
[11] = tested on: Staph. aureus SK & F 2743; assay: MIC, standard microtiter assay; type: cell-based; details: Staphylococcus aureus
[12] = tested on: Staph. aureus SK & F 2589; assay: MIC, standard microtiter assay; type: cell-based; details: Staphylococcus aureus
[13] = tested on: Clostridium perfringens MCP-1; assay: microbe, parasite or virus in culture; type: cell-based; details: MCP1
[14] = tested on: Staph. aureus SK & F 2736; assay: MIC, standard microtiter assay; type: cell-based; details: Staphylococcus aureus
[15] = tested on: Strep. faecilis HH34358; assay: MIC, standard microtiter assay; type: cell-based
[16] = tested on: Staph. aureus SK & F 2776; assay: MIC, standard microtiter assay; type: cell-based; details: Staphylococcus aureus
[17] = tested on: Staph. epidermidis SK & F 2265; assay: MIC, standard microtiter assay; type: cell-based; details: Staphylococcus epidermidis
[18] = tested on: Fusobacterium nucleatum ATCC 25586; assay: MIC, standard microtiter assay; type: cell-based
[19] = tested on: Staph. aureus SK & F 2591; assay: MIC, standard microtiter assay; type: cell-based; details: Staphylococcus aureus
[20] = tested on: C. perfringens MCP-2; assay: microbe, parasite or virus in culture; type: cell-based; details: Clostridium perfringens
[21] = tested on: Staph. aureus SK & F 674-P6-mutant; assay: microbe, parasite or virus in culture; type: cell-based; details: Staphylococcus aureus
[22] = tested on: C. difficile SK & F 3141; assay: MIC, standard microtiter assay; type: cell-based; details: Clostridioides difficile
[23] = tested on: Staph. aureus SK & F 2680; assay: MIC, standard microtiter assay; type: cell-based; details: Staphylococcus aureus
[24] = tested on: Staph. aureus HH127; assay: MIC, standard microtiter assay; type: cell-based
[25] = tested on: Staph. aureus SK & F 2596; assay: MIC, standard microtiter assay; type: cell-based; details: Staphylococcus aureus
[26] = tested on: Providencia SK & F 276; assay: MIC, standard microtiter assay; type: cell-based
[27] = tested on: B. fragilis H145; assay: MIC, standard microtiter assay; type: cell-based; details: Bacteroides fragilis
[28] = tested on: Staph. epidermidis SK & F 651; assay: MIC, standard microtiter assay; type: cell-based; details: Staphylococcus epidermidis
[29] = tested on: Staph. aureus SK & F 2595; assay: MIC, standard microtiter assay; type: cell-based; details: Staphylococcus aureus
[30] = tested on: Staph. aureus SK & F 2613; assay: MIC, standard microtiter assay; type: cell-based; details: Staphylococcus aureus
[31] = tested on: C. difficile SK & F 3091; assay: MIC, standard microtiter assay; type: cell-based; details: Clostridioides difficile
[32] = tested on: E. coli 12140 (SK & F 809); assay: MIC, standard microtiter assay; type: cell-based; details: Escherichia coli
[33] = tested on: C. difficile SK & F 3065; assay: MIC, standard microtiter assay; type: cell-based; details: Clostridioides difficile
[34] = tested on: Staph. aureus SK & F 1761; assay: MIC, standard microtiter assay; type: cell-based; details: Staphylococcus aureus
[35] = tested on: B. thetaiotamicron SK & F 3089; assay: MIC, standard microtiter assay; type: cell-based
[36] = tested on: Proteus mirabilis SK & F 444; assay: MIC, standard microtiter assay; type: cell-based
[37] = tested on: Staph. aureus SK & F 2592; assay: MIC, standard microtiter assay; type: cell-based; details: Staphylococcus aureus
[38] = tested on: Staph. aureus SK & F 2594; assay: MIC, standard microtiter assay; type: cell-based; details: Staphylococcus aureus
[39] = tested on: Staph. aureus SK & F 2614; assay: MIC, standard microtiter assay; type: cell-based; details: Staphylococcus aureus
[40] = tested on: Serratia marcesens ATCC 13880; assay: MIC, standard microtiter assay; type: cell-based; details: ATCC13880
[41] = tested on: C. difficile SK & F 3092; assay: MIC, standard microtiter assay; type: cell-based; details: Clostridioides difficile
[42] = tested on: Staph. aureus SK & F 2615; assay: MIC, standard microtiter assay; type: cell-based; details: Staphylococcus aureus

With `CN[C@H](CC(C)C)C(=O)N[C@H]1C(=O)N[C@@H](CC(N)=O)C(=O)N[C@H]2C(=O)N[C@H]3C(=O)N[C@H](C(=O)N[C@H](C(=O)O)c4cc(O)cc(O)c4-c4cc3ccc4O)[C@H](O)c3ccc(c(Cl)c3)Oc3cc2cc(c3O[C@@H]2O[C@H](CO)[C@@H](O)[C@H](O)[C@H]2O[C@H]2C[C@](C)(N)[C@H](O)[C@H](C)O2)Oc2ccc(cc2Cl)[C@H]1O` [Vancomycin, vancomycin] the MIC [1] was 1.6 µg/mL (≈ 1.1 µM), the MIC [2] was over 100 µg/mL and the MIC [3] was over 100 µg/mL. For the same compound, the MIC [4] was 100 µg/mL (≈ 69 µM), the “GLU (% Control)” value ([5]; 0.5 ppm) was 17 % Control and the “LYS (% Control)” value ([5]; 0.5 ppm) was 83 % Control. The “Propionate % (% Control)” value ([5]; 0.5 ppm) was 105 % Control, the “VFA (% Control)” value ([5]; 0.5 ppm) was 97 % Control and the “GLU (% Control)” value ([5]; 5.0 ppm) was 165 % Control. The “LYS (% Control)” value ([5]; 5.0 ppm) was 85 % Control, the “Propionate % (% Control)” value ([5]; 5.0 ppm) was 130 % Control and the “VFA (% Control)” value ([5]; 5.0 ppm) was 108 % Control. For the same compound, the “GLU (% Control)” value ([5]; 50.0 ppm) was 189 % Control, the “LYS (% Control)” value ([5]; 50.0 ppm) was 97 % Control and the “Propionate % (% Control)” value ([5]; 50.0 ppm) was 127 % Control. For the same compound, the “VFA (% Control)” value ([5]; 50.0 ppm) was 107 % Control, the MIC [6] was 1 µg/mL (≈ 0.69 µM) and the MIC [7] was 1.6 µg/mL (≈ 1.1 µM). For the same compound, the MIC [8] was over 32 µg/mL, the MIC [9] was 1.6 µg/mL (≈ 1.1 µM) and the MIC [10] was 1.6 µg/mL (≈ 1.1 µM). The MIC [11] was 1.6 µg/mL (≈ 1.1 µM), the MIC [12] was 1.6 µg/mL (≈ 1.1 µM) and the MIC [13] was 0.5 µg/mL (≈ 0.345 µM). The MIC [14] was 1.6 µg/mL (≈ 1.1 µM), the MIC [15] was 3.1 µg/mL (≈ 2.14 µM) and the MIC [16] was 1.6 µg/mL (≈ 1.1 µM). It also gave an MIC [17] of 3.1 µg/mL (≈ 2.14 µM), an MIC ([18]; Fusobacterium nucleatum, ATCC25586) of 32 µg/mL (≈ 22.1 µM) and an MIC ([18]; Table F, Fusobacterium nucleatum ATCC 25586) of 32 µg/mL (≈ 22.1 µM). For the same compound, the MIC [19] was 1.6 µg/mL (≈ 1.1 µM), the MIC ([20]; MCP2, Table D, Anaerobes) was 0.5 µg/mL (≈ 0.345 µM) and the MIC ([20]; MCP2, Table F) was 2 µg/mL (≈ 1.38 µM). It also gave an MIC [21] of 100 µg/mL (≈ 69 µM), an MIC [22] of 1 µg/mL (≈ 0.69 µM) and an MIC [23] of 1.6 µg/mL (≈ 1.1 µM). It also gave an MIC ([24]; Staphylococcus aureus, HH127) of 1.6 µg/mL (≈ 1.1 µM), an MIC ([24]; Table A, Staph. aureus HH127) of 1.6 µg/mL (≈ 1.1 µM) and an MIC ([24]; Table E, Staph. aureus HH127) of 1.6 µg/mL (≈ 1.1 µM). It also gave an MIC [25] of 3.1 µg/mL (≈ 2.14 µM), an MIC [26] of over 100 µg/mL and an MIC [27] of 32 µg/mL (≈ 22.1 µM). For the same compound, the MIC ([28]; Table A, Staph. epidermidis SK & F 651) was 1.6 µg/mL (≈ 1.1 µM), the MIC ([28]; Table E, Staph. epidermidis SK & F 651, first entry) was 3.1 µg/mL (≈ 2.14 µM) and the MIC ([28]; Table E, Staph. epidermidis SK & F 651, second entry) was 3.1 µg/mL (≈ 2.14 µM). The MIC [29] was 1.6 µg/mL (≈ 1.1 µM), the MIC [30] was 1.6 µg/mL (≈ 1.1 µM) and the MIC [31] was 2 µg/mL (≈ 1.38 µM). It also gave an MIC [32] of 100 µg/mL (≈ 69 µM), an MIC ([33]; Table D, Anaerobes) of 4 µg/mL (≈ 2.76 µM) and an MIC ([33]; Table F) of 1 µg/mL (≈ 0.69 µM). For the same compound, the MIC [34] was 1.6 µg/mL (≈ 1.1 µM), the MIC [35] was 32 µg/mL (≈ 22.1 µM) and the MIC [36] was 100 µg/mL (≈ 69 µM). It also gave an MIC [37] of 3.1 µg/mL (≈ 2.14 µM), an MIC [38] of 1.6 µg/mL (≈ 1.1 µM) and an MIC [39] of 1.6 µg/mL (≈ 1.1 µM). For the same compound, the MIC [40] was over 100 µg/mL, the MIC ([41]; Table D, Anaerobes) was 2 µg/mL (≈ 1.38 µM) and the MIC ([41]; Table F) was 0.5 µg/mL (≈ 0.345 µM). The MIC [42] was 3.1 µg/mL (≈ 2.14 µM).
